Data on 62 compounds can be found in patent US20170152258A9, “Substituted Pyridopyrazines as Syk Inhibitors” (HUTCHISON MEDIPHARMA LIMITED, priority 2012, published 2017).

The target in the experiment is Syk kinase (Homo sapiens, UniProt P43405). The experiment can be described thus: SYK Enzymatic Assay (Z-LYTE Tyr 2 peptide). The note with it: 8 concentrations 1 μM down to 0.0003 μM. The format is biochemical. As for the experimental part: Syk kinase assay are performed in vitro using Kit-Tyr 2 Peptide (Invitrogen, Cat. No. PV3191) and in a 384-well assay plate. […] The 384-well assay plate (Corning, Cat. No. 3575) is mixed and incubated at room temperature for 1 hour. 10 μL of the Development Solution (prepared by diluting Development Reagent A (Cat. No. PV3297) to 1/32 with Development Buffer (Cat. No. PV3127)) is then added to each well, mixed and incubated at room temperature for another 1 hour. The reactions are then stopped by adding 10 μL of the Stop Reagent (Invitrogen, Cat. No. PV3094), and the plate is read with Wallac 1420 VICTOR^3 Multilabel Counter (PerkinElmer™) at 445 nm and 520 nm fluorescence. All compounds are tested at 8 concentrations (1 μM down to 0.0003 μM) using a 1:3 serial dilution scheme.
`NC(=O)N1CCO[C@H](COc2nc(-c3ccc4[nH]ncc4c3)cc3nccnc23)C1` [Cmpd 242] yielded a half-inhibitory concentration (IC50) of 111 nM. The compound `OC1CCC(Oc2nc(-c3ccc(N4CCOCC4)cc3)cc3nccnc23)CC1` (centres unmarked) [Compound 1, 4-(7-(4-morpholinophenyl)pyrido[4,3-b]pyrazin-5-yloxy)cyclohexanol] displayed an IC50 of 270 nM. Take `c1cnc2c(OCCc3cn[nH]c3)nc(-c3ccc(N4CCOCC4)cc3)cc2n1` [Compound 2, 4-(4-(5-(2-(1H-pyrazol-4-yl)ethoxy)pyrido[3,4-b]pyrazin-7-yl)phenyl)morpholine]: the IC50 stood at 552 nM.

`NC(=O)c1ccc(Oc2nc(-c3ccc(N4CCOCC4)cc3)cc3nccnc23)cc1` [Compound 3, 4-(7-(4-morpholinophenyl)pyrido[4,3-b]pyrazin-5-yloxy)benzamide] showed an IC50 of 459 nM. Consider `O=C1CCC(COc2nc(-c3ccc(N4CCOCC4)cc3)cc3nccnc23)CN1` (centres unmarked) [Compound 4, 5-(((7-(4-morpholinophenyl)pyrido[3,4-b]pyrazin-5-yl)oxy)methyl)piperidin-2-one], for which half-maximal inhibition (IC50) required 160 nM. `CN1CCN(c2ccc(-c3cc4nccnc4c(OCC4CCC(=O)NC4)n3)cc2)CC1` (centres unmarked) [Compound 5] came in with a half-inhibitory concentration (IC50) of 172 nM. `CS(=O)(=O)N1CCO[C@H](COc2nc(-c3ccc(C4CCNCC4)cc3)cc3nccnc23)C1` [Compound 10, (S)-4-(methylsulfonyl)-2-(((7-(4-(piperidin-4-yl)phenyl)pyrido[3,4-b]pyrazin-5-yl)oxy)methyl)morpholine] returned an IC50 of 18 nM.

For the compound `CS(=O)(=O)N1CCO[C@H](COc2nc(-c3ccc(OC(F)F)cc3)cc3nccnc23)C1` [Compound 34], half-maximal inhibition (IC50) was put at 227 nM. Under `COc1ccc(-c2cc3nccnc3c(OC[C@@H]3CN(S(C)(=O)=O)CCO3)n2)cc1F` [Compound 35] stands 131 nM; under `CS(=O)(=O)N1CCO[C@H](COc2nc(-c3ccc(N4CCCC4)cc3)cc3nccnc23)C1` [Compound 37], 40 nM.

As for `CS(=O)(=O)N1CCO[C@H](COc2nc(-c3ccc(Cl)cc3)cc3nccnc23)C1` [Compound 40], it took 338 nM to reach half-maximal inhibition (IC50). Under `Cc1ccc(-c2cc3nccnc3c(OC[C@@H]3CN(S(C)(=O)=O)CCO3)n2)cc1` [Compound 41] stands 138 nM; under `CS(=O)(=O)N1CCO[C@H](COc2nc(-c3cnn(C4CCOCC4)c3)cc3nccnc23)C1` [Compound 42], 139 nM; under `CS(=O)(=O)N1CCO[C@H](COc2nc(-c3ccc(F)cc3)cc3nccnc23)C1` [Compound 44], 324 nM. Take `CS(=O)(=O)N1CCO[C@H](COc2nc(-c3ccc(C#N)cc3)cc3nccnc23)C1` [Compound 45]: the half-maximal inhibitory concentration (IC50) is 846 nM. As to `Cn1cc(-c2cc3nccnc3c(OC[C@@H]3CN(S(C)(=O)=O)CCO3)n2)cn1` [Compound 46], the IC50 was 192 nM. For the compound `CNc1ccc(-c2cc3nccnc3c(OC[C@@H]3CN(C(C)=O)CCO3)n2)cc1` [Compound 47], the IC50 came out at 122 nM. The compound `CN(C)S(=O)(=O)N1CCO[C@H](COc2nc(-c3ccc(N4CCOCC4)cc3)cc3nccnc23)C1` [Compound 56] registered an IC50 of 121 nM. `CN(C)c1ccc(-c2cc3nccnc3c(OC[C@@H]3CN(C(=O)CCc4cccnc4)CCO3)n2)cc1` [Compound 79]: it took 231 nM to reach half-maximal inhibition (IC50). Under `CN(C)c1ccc(-c2cc3nccnc3c(OC[C@@H]3CN(C(=O)Cc4cccnc4)CCO3)n2)cc1` [Compound 80] stands 107 nM; under `CN(C)c1ccc(-c2cc3nccnc3c(OC[C@@H]3CN(C(=O)CCCC#N)CCO3)n2)cc1` [Compound 81], 166 nM. Regarding `CC(C)S(=O)(=O)N1CCO[C@H](COc2nc(-c3ccc(N4CCOCC4)cc3)cc3nccnc23)C1` [Compound 82], the midpoint of inhibition, the IC50, lay at 113 nM. As for `CN(C)c1ccc(-c2cc3nccnc3c(OC[C@@H]3CN(C(=O)CCn4ccnc4)CCO3)n2)cc1` [Compound 85], the IC50 was determined as 283 nM.

Compound `CN(C)c1ccc(-c2cc3nccnc3c(OC[C@@H]3CN(S(=O)(=O)C4CCCCC4)CCO3)n2)cc1` [Compound 91] came in with an IC50 of 474 nM.

Turning to `CN(C)c1ccc(-c2cc3nccnc3c(OC[C@@H]3CN(S(=O)(=O)Cc4cccc(F)c4)CCO3)n2)cc1` [Compound 93], the IC50 was determined as 808 nM.

With `CN(C)c1ccc(-c2cc3nccnc3c(OC[C@@H]3CN(C(=O)C4CC4(F)F)CCO3)n2)cc1` (some centres unmarked) [Compound 96], the IC50 was found to be 134 nM.

For `CN(C)c1ccc(-c2cc3nccnc3c(OC[C@@H]3CN(C(=O)C4(C#N)CC4)CCO3)n2)cc1` [Compound 97], the IC50 was found to be 144 nM. Regarding `CN(C)c1ccc(-c2cc3nccnc3c(O[C@H]3CCOC3)n2)cc1` [Compound 106], the IC50 turned out to be 130 nM. Under `CN(C)c1ccc(-c2cc3nccnc3c(OC3CCOCC3)n2)cc1` [Compound 107] stands 919 nM. Turning to `COCCNc1ccc(-c2cc3nccnc3c(OC[C@@H]3CN(C(C)=O)CCO3)n2)cc1` [Compound 114], the IC50 was 122 nM. The compound `CNS(=O)(=O)CCN1CCO[C@H](COc2nc(-c3ccc(N(C)C)cc3)cc3nccnc23)C1` [Compound 128] registered an IC50 of 477 nM.

As to `CN(C)CCOc1cccc(-c2cc3nccnc3c(OC[C@@H]3CN(S(C)(=O)=O)CCO3)n2)c1` [Compound 130], 454 nM corresponded to half-maximal inhibition (IC50). As to `COc1ccc(-c2cc3nccnc3c(OC[C@@H]3CN(C(C)=O)CCO3)n2)cc1OC` [Compound 132], the IC50 was 109 nM. The compound `COc1cc(-c2cc3nccnc3c(OC[C@@H]3CN(C(C)=O)CCO3)n2)ccc1OC(C)C` [Compound 147] returned an IC50 of 115 nM. Next, `CC(=O)N1CCO[C@H](COc2nc(-c3ccc(C(C)C)cc3)cc3nccnc23)C1` [Compound 160]: 102 nM.

Compound `CC(=O)N1CCO[C@H](COc2nc(-c3ccc(C4CCNCC4)cc3)cc3nccnc23)C1` [Compound 162] had a 50% inhibitory concentration (IC50) of 151 nM. `CN(C)c1ccc(-c2cc3nccnc3c(OCC3CCCCO3)n2)cc1` (centres unmarked) [Compound 167] yielded an IC50 of 405 nM. As for `CN(C)c1ccc(-c2cc3nccnc3c(OCC3CCCO3)n2)cc1` (centres unmarked) [Compound 168], the half-inhibitory concentration (IC50) is 211 nM. For the compound `CS(=O)(=O)N1CCC(c2ccc(-c3cc4nccnc4c(OCC4CCCCO4)n3)cc2)CC1` (centres unmarked) [Compound 169], the 50% inhibitory concentration (IC50) is 272 nM. On to `CS(=O)(=O)N1CCC(c2ccc(-c3cc4nccnc4c(OCC4CCCO4)n3)cc2)CC1` (centres unmarked) [Compound 170], for which it took 182 nM to reach half-maximal inhibition (IC50). `CC(=O)N1CCO[C@H](COc2nc(-c3ccc4c(c3)CC(=O)N4C)cc3nccnc23)C1` [Compound 171] showed an IC50 of 458 nM. Regarding `CC(=O)N1CCO[C@H](COc2nc(-c3cnc(N(C)C)c(C)c3)cc3nccnc23)C1` [Compound 174], the IC50 was 816 nM. As to `CS(=O)(=O)N1CCN(c2ccc(-c3cc4nccnc4c(O[C@@H]4CCCOC4)n3)cc2)CC1` [Compound 179], the half-inhibitory concentration (IC50) was 190 nM. On to `CS(=O)(=O)N1CCC(c2ccc(-c3cc4nccnc4c(O[C@@H]4CCCOC4)n3)cc2)CC1` [Compound 180], for which the IC50 is 177 nM. Compound `CC(=O)N1CCO[C@H](COc2nc(-c3ccc(N4CCNCC4)c(C)c3)cc3nccnc23)C1` [Compound 182] returned an IC50 of 110 nM. Turning to `CC(C)c1ccc(-c2cc3nccnc3c(OC[C@@H]3CN(S(N)(=O)=O)CCO3)n2)cc1` [Compound 187], the midpoint of inhibition, the IC50, lay at 109 nM. As to `CC(=O)N1CCC(c2ccc(-c3cc4nccnc4c(O[C@@H]4CCCOC4)n3)cc2)CC1` [Compound 191], the IC50 turned out to be 115 nM. As to `Clc1cc(-c2cc3nccnc3c(O[C@@H]3CCOC3)n2)ccc1N1CCOCC1` [Compound 194], half-maximal inhibition (IC50) was put at 136 nM. As for `CNC(=O)N1CCO[C@H](COc2nc(-c3ccc4[nH]ncc4c3)cc3nccnc23)C1` [Compound 204], it took 126 nM to reach half-maximal inhibition (IC50). On to `CC(=O)N1CCOC(C(C)Oc2nc(-c3ccc(N(C)C)cc3)cc3nccnc23)C1` (centres unmarked) [Compound 233], for which the IC50 was determined as 386 nM. Next, `CC(Oc1nc(-c2ccc(N(C)C)cc2)cc2nccnc12)C1CN(C(N)=O)CCO1` (centres unmarked) [Compound 234]: 193 nM; `CNC(=O)N1CCOC(C(C)Oc2nc(-c3ccc(N(C)C)cc3)cc3nccnc23)C1` (centres unmarked) [Compound 235]: 212 nM. `CC(Oc1nc(-c2ccc(N(C)C)cc2)cc2nccnc12)C1CN(S(C)(=O)=O)CCO1` (centres unmarked) [Compound 236] showed an IC50 of 109 nM.

Consider `CC(Oc1nc(-c2ccc(N(C)C)cc2)cc2nccnc12)C1CN(C(N)=O)CCO1` (centres unmarked) [Compound 238], for which the concentration for half-maximal inhibition (IC50) is 275 nM. Compound `CNC(=O)N1CCOC(C(C)Oc2nc(-c3ccc(N(C)C)cc3)cc3nccnc23)C1` (centres unmarked) [Compound 239] showed an IC50 of 451 nM. For the compound `CC(Oc1nc(-c2ccc(N(C)C)cc2)cc2nccnc12)C1CN(S(C)(=O)=O)CCO1` (centres unmarked) [Compound 240], the IC50 is 262 nM. Take `c1cnc2c(O[C@@H]3CCNC3)nc(-c3ccc(N4CCOCC4)cc3)cc2n1` [Compound 243]: half-maximal inhibition (IC50) was put at 300 nM.

Turning to `CC(C)(N)c1ccc(-c2cc3nccnc3c(OC[C@@H]3CN(S(C)(=O)=O)CCO3)n2)cc1` [Compound 244], the IC50 was determined as 136 nM.

With `CC(=O)N1CCO[C@H](COc2nc(-c3ccc(C(C)(C)N)cc3)cc3nccnc23)C1` [Compound 245], the IC50 came out at 449 nM. Under `CC(=O)N1CCO[C@H](COc2nc(-c3ccc(C(C)N(C)C)cc3)cc3nccnc23)C1` (some centres unmarked) [Compound 271] stands 741 nM; under `CN(C)CCc1ccc(-c2cc3nccnc3c(OC[C@@H]3CN(S(C)(=O)=O)CCO3)n2)cc1` [Compound 272], 178 nM.

`N#CC1(c2ccc(-c3cc4nccnc4c(OC[C@@H]4CN(C(N)=O)CCO4)n3)cc2)CC1` [Compound 275] yielded an IC50 of 76 nM.
